Data: patent US20130052154A1, “Compositions and Methods for the Treatment of Lung Inflammation” (BOARD OF REGENTS OF THE UNIVERSITY OF NEBRASKA, priority 2011, published 2013)

Columns and labels:
Format in all cases: biochemical
[1] = target: T1, catalase (from bovine liver), native (nC) (Bos taurus, UniProt P00432); experiment: Catalytic constants of native catalase (nC) from effect of H2O2 concentration on rate of H2O2 decomposition; details: H2O2 0 to 65 mM, catalase 2 μg/mL, 50 mM phosphate buffer pH 7.4, 240 nm, Lineweaver-Burk
T1 construct: purchased Calbiochem (Gibbstown, N.J.); host or cells: bovine liver
T1 sequence (P00432 2-527 limits assumed): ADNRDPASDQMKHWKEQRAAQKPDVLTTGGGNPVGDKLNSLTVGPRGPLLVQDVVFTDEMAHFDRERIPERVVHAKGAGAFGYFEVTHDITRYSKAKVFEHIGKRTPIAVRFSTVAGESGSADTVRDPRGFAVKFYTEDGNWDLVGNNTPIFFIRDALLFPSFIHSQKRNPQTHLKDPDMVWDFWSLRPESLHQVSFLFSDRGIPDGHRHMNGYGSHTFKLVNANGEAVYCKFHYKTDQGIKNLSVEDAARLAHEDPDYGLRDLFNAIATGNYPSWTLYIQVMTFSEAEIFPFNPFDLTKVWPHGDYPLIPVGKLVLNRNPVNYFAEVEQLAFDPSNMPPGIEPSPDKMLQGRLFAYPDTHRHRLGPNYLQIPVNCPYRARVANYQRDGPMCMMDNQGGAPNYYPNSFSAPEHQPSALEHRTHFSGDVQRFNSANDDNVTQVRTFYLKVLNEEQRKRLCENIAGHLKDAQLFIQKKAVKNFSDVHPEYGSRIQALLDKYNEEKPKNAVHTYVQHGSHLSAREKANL
Experimental: (§1) SOD1 (from bovine erythrocytes), hydrogen peroxide (H2O2), 2,3,5-triphenyltetrazolium chloride (TTC) and copper standards for Inductively Coupled Plasma Mass Spectroscopy (ICP-MS)— TraceCERT®, 1000 mg/L Cu in nitric acid) were from Sigma-Aldrich (St. Louis, Mo.). Catalase (from bovine liver) was from Calbiochem (Gibbstown, N.J.). PEG-pLL50 was from Alamanda Polymers™ (Huntsville, Ala.). […] Cross-linkers 3,3′-dithiobis(sulfosuccinimidylpropionate) (DTSSP) and bis(sulfosuccinimidyl)suberate (BS^3) were from Thermo Fisher Scientific (Rockford, Ill.). NAP™ desalting columns and HiPrep 16/60 Sephacryl S-400 HR column were from GE Healthcare (Piscataway, N.J.). Criterion Tris-HCl gels and Precision Plus Protein™ All Blue Standards were from Bio-Rad (Hercules, Calif.). SYPRO® Ruby protein gel stain and cell culture reagents were purchased from Invitrogen (Carlsbad, Calif.). CellTiter 96® AQueous One Solution Cell Proliferation Assay (MTS) was from Promega (Madison, Wis.). LumiMax Superoxide Anion Detection Kit was from Agilent Technologies, Inc. (Santa Clara, Calif.). All other reagents and supplies were from Fisher Scientific (Pittsburgh, Pa.) unless noted otherwise.

[2] = target: T2, catalase (from bovine liver), cleavable DTSSP cross-linked cl-nanozyme with PEG-pLL50, non-purified (C2) (Bos taurus, UniProt P00432); experiment: Catalytic constants of DTSSP cross-linked catalase cl-nanozyme (C2) from effect of H2O2 concentration on rate of H2O2 decomposition
T2 construct: purchased Calbiochem (Gibbstown, N.J.); host or cells: bovine liver
T2 sequence (P00432 2-527 limits assumed): T1 sequence (P00432 2-527 limits assumed)
Experimental: as §1
(§2) Enzyme and polymer stock solutions were prepared in 10 mM HEPES (pH 7.4) and 10 mM HEPES-buffered saline (HBS; pH 7.4) for SOD1 and catalase, respectively. Non-cross-linked BICs (Z+/−=2) were prepared as described (Klyachko et al. (2012) Nanomed. Nanotechnol. Biol. Med., 8:119-129). Targeted degree of cross-linking was defined as the molar ratio between cross-linker (DTSSP/BS^3) and pLL amines Precalculated amount of the respective cross-linker was dissolved in the reaction buffer (HEPES/HBS), quickly added to BICs, and the reaction mixture was briefly vortexed and incubated for 2 hours on ice. Unreacted crosslinker was desalted using NAP™ columns following manufacturer's instructions. Cl-Nanozymes were purified using size exclusion chromatography (SEC) (small/intermediate scale) or centrifugal filtration (large scale). […] Protein concentration was determined using Micro BCA™ Protein Assay Kit. […]

[3] = target: T3, catalase (from bovine liver), cleavable DTSSP cross-linked cl-nanozyme with PEG-pLL50, purified (C2p) (Bos taurus, UniProt P00432); experiment: Catalytic constants of purified DTSSP cross-linked catalase cl-nanozyme (C2p) from effect of H2O2 concentration on rate of H2O2 decomposition
T3 construct: purchased Calbiochem (Gibbstown, N.J.); host or cells: bovine liver
T3 sequence (P00432 2-527 limits assumed): T1 sequence (P00432 2-527 limits assumed)
Experimental: as §1
as §2, with “scale). SEC was carried out using an ÄKTA™ Fast Protein Liquid Chromatography (FPLC) (Amersham Biosciences, Piscataway, N.J.) system. DTSSP cl-nanozymes were lyophilized overnight, reconstituted in deionized water (DW), loaded onto a HiPrep 16/60 Sephacryl™ S-400 HR column and eluted using 10 mM HBS (pH 7.4) at a flow rate of 0.5 mL/minute. Prior to each experiment, the column was pre-conditioned with free block copolymer (PEG-pLL50) to minimize non-specific adsorption of the cl-nanozymes (Boeckle et al. (2004) J. Gene Med., 6:1102-1111).” for “scale).”

[4] = H2O2 0 to 65 mM, catalase 2 μg/mL, 50 mM phosphate buffer pH 7.4, 240 nm, Lineweaver-Burk, non-purified cl-nanozyme C2
[5] = H2O2 0 to 65 mM, catalase 2 μg/mL, 50 mM phosphate buffer pH 7.4, 240 nm, Lineweaver-Burk, purified cl-nanozyme C2p

OO [H2O2, hydrogen peroxide] was tested, and the Km [1] was 53.2 mM, the kcat [1] was 798000 s⁻¹ and the “increase in Km value” ([2]; C2 compared to native catalase (nC)) was “ca. 1.8 fold”. For the same molecule, the Km [2, 4] was 94.1 mM, the kcat [2, 4] was 1.56e+06 s⁻¹ and the “kcat/Km lower than nC” value ([3]; C2p compared to native catalase (nC)) was “ca. 48%”. The “kcat/Km lower than C2” value ([3]; C2p compared to non-purified cl-nanozyme (C2)) was roughly 53%, the Km [3, 5] was 93.2 mM and the kcat [3, 5] was 722000 s⁻¹.
